Counter-ions that a name gives are not always drawn.

Chain of human TRPV1 (Q8NER1 whole entry): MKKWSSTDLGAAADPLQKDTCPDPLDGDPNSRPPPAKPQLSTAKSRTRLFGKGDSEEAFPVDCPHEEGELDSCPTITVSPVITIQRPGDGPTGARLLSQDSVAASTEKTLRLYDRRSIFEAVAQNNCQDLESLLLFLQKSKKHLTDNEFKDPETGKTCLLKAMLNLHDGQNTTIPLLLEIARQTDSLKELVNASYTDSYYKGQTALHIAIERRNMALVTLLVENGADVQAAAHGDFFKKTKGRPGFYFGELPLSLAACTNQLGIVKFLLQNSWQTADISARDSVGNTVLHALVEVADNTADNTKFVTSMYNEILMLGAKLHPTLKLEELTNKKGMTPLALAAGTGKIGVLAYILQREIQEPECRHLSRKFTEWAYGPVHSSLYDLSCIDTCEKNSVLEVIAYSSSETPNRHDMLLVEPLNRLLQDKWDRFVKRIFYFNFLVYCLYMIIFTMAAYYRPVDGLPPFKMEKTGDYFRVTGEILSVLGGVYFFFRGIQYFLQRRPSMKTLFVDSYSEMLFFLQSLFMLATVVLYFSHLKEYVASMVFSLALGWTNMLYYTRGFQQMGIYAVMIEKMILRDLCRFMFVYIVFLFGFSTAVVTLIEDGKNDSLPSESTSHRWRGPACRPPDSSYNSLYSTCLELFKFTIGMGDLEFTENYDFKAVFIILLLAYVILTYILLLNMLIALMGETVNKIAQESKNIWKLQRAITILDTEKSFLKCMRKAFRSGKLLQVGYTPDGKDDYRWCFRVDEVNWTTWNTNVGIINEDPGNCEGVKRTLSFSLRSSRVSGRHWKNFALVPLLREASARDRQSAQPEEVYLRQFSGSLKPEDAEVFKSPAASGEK

The test has as its target human TRPV1 (Homo sapiens (Human), UniProt Q8NER1). The settings on record: read-out: IC50 (μM), antagonist effect against human TRPV1; CHO cells expressing human TrpV1; stimulated with 2.5 μM NADA (EC80); mean of at least three independent experiments.
Procedure: Chinese Hamster Ovary (CHO) cells transfected to express human TrpV1 receptor (which are herein referred to as CHO-huTrpV1 cells), were grown in F-12 Ham's Nutrient Mixture media (HyClone SH30026.01) supplemented with 10% Fetal Bovine Serum (Invitrogen #26140-079), 1% Antibiotic/antimycotic (Invitrogen #15240-062) and 500 ug/mL geneticin (ThermoFisher scientific #1031035). Cells were grown in T-75 flasks at 37° C. incubator with 5% CO2. The cells were passaged twice a week at a ratio of 1:10 to 1:20 to maintain steady growth. For experimentation, cells were harvested at approximately 80% confluency and plated onto 384 well black cell culture plates (cat #781091, Greinier Bio-One Inc.) at 15,000 cells per well in 20 μl media and grown overnight.
The loading dye was prepared following instruction of Calcium 6 assay kit (Molecular Probes, #R8190): 10 ml buffer from bottle B was added to 1 vial of bottle A (adapted to room temperature from −20° C.) and mixed well, then 2.5 mM of fresh prepared probenecid, was added and mixed well. 20 μl/well of loading dye was added on top of the cells, and incubated at 37° C. for 1 hour 30 min.
Assay buffer preparation: 1×HBSS, 2 mM HEPES, 0.1% BSA plus 2.5 mM freshly prepared probenecid (Invitrogen, #P36400). 25 μl/well assay buffer in 384 well clear plate (cat #782281, Greiner Bio-one) was dispensed with buffer distributor (Multidrop ComB1 from Thermo Scientific). The compounds were in 384 Echo plate (cat #LPL0200, Labcyte) and the starting concentration of compound was 10 mM, then 1 to 3 serial dilution in 100% DMSO, 8 ul/well). 125 nl compounds was transferred to the 384 well plate containing 25 μl/well buffer with Echo® 555 Liquid Handler (Labcyte), such that the compound concentration was 5 fold of final concentration. The plate was shook slowly at 40 rpm/min for 10 min to mix. 10 μl of 5 fold compound in the buffer was transferred to the cell plate (containing 20 μl cells and 20 μl dye) using Vertical Pipetting Station 384ST (Agilent Technologies). Six fold of final concentration of NADA (N-arachidonyl dopamine, cat #A8848, Sigma) in the assay buffer was prepared and 30 μl/well was distributed in 384 well clear plate.
After compounds were added to the cell plate with loading dye, within 10-15 minutes, cell plate and plate containing NADA was placed into the FLIPR (Fluorescent Imaging Plate Reader) instrument (Tetra System, Molecular device). The TRPV1 receptor was stimulated by application of 10 μl per well of NADA. For testing the effect of compounds for possible antagonism, 2.5 μM NADA was used at the EC80 concentration.
For determination of antagonist IC50 values (concentration of antagonist that inhibits response to NADA by 50%), at least 10 antagonist concentration were measured in triplicate. The response in the presence of the antagonist was calculated as a percentage of the control response to NADA and was plotted against the concentration of the antagonist. The IC50 was estimated by non-linear regression analysis to sigmoidal-logistic curves by HELIOS (PROD 2) system. These values were averaged (means and standard error of the mean) for at least three independent experiments.
Consider `OCC[C@H](O)c1cc(F)c(CN[C@H]2C[C@H](Oc3ccc(F)c(C(F)(F)F)c3)C2)c2ccncc12` (single isomer, unassigned; peak 1) [Example 9 peak 1], for which the IC50 amounted to 0.09 nM. Then `N#Cc1ncc(O[C@H]2C[C@H](NCc3c(F)ccc4cnccc34)C2)cn1` [Example 108, 5-((1r,3r)-3-(((6-fluoroisoquinolin-5-yl)methyl)amino)cyclobutoxy)pyrimidine-2-carbonitrile], with 2510 nM; and `Nc1cc2c(CN[C@H]3C[C@H](Oc4ccc(C(F)(F)F)nc4)C3)cccc2cn1` [Example 74, 5-((((1r,3r)-3-((6-(trifluoromethyl)pyridin-3-yl)oxy)cyclobutyl)amino)methyl)isoquinolin-3-amine], with 995 nM. `Fc1ccc(NC2CC(NCc3c(F)ccc4cnccc34)C2)cc1C(F)(F)F` (stereo not shown) [Example 63, N^1-(4-fluoro-3-(trifluoromethyl)phenyl)-N^3-((6-fluoroisoquinolin-5-yl)methyl)cyclobutane-1,3-diamine]: the 50% inhibitory concentration (IC50) amounted to 98.6 nM. The value for `Fc1ccc2cnccc2c1CN[C@H]1C[C@H](Oc2ccc(C(F)(F)F)nc2)C1` [Example 94, (1r,3r)-N-((6-fluoroisoquinolin-5-yl)methyl)-3-((6-(trifluoromethyl)pyridin-3-yl)oxy)cyclobutan-1-amine, HCl] was 193 nM; that for `OCCC(CO)c1cc(F)c(CN[C@H]2C[C@H](Oc3ccc(F)c(C(F)(F)F)c3)C2)c2ccncc12` (stereo partly shown) [Example 77, 2-(6-fluoro-5-((((1r,3r)-3-(4-fluoro-3-(trifluoromethyl)phenoxy)cyclobutyl)amino)methyl)isoquinolin-8-yl)butane-1,4-diol] was 691 nM. Then `Fc1ccc2cnccc2c1CN[C@H]1C[C@H](Oc2ccc3ccccc3c2)C1` [Example 31, (1r,3r)-N-((6-fluoroisoquinolin-5-yl)methyl)-3-(naphthalen-2-yloxy)cyclobutan-1-amine, HCl], with 264 nM; and `[O-][n+]1ccc2c(CN[C@H]3C[C@H](Oc4ccc(F)c(C(F)(F)F)c4)C3)c(F)ccc2c1` [Example 73, 6-fluoro-5-((((1r,3r)-3-(4-fluoro-3-(trifluoromethyl)phenoxy)cyclobutyl)amino)methyl)isoquinoline 2-oxide], with 193 nM; and `FCC(F)c1cc(O[C@H]2C[C@H](NCc3c(F)ccc4cnccc34)C2)ccc1F` (stereo partly shown) [Example 40, (1r,3r)-3-(3-(1,2-difluoroethyl)-4-fluorophenoxy)-N-((6-fluoroisoquinolin-5-yl)methyl)cyclobutan-1-amine], with 124 nM.

Consider `Fc1ccc2cnccc2c1CN[C@H]1C[C@H](Oc2cccc(S(F)(F)(F)(F)F)c2)C1` [Example 33, (1r,3r)-N-((6-fluoroisoquinolin-5-yl)methyl)-3-(3-(pentafluoro-λ^6-sulfaneyl)phenoxy)cyclobutan-1-amine, HCl], for which the IC50 is 15.4 nM. `Fc1ccc(O[C@H]2C[C@H](NCc3cccc4cnccc34)C2)cc1C(F)(F)F` [Example 22, (1r,3r)-3-(4-fluoro-3-(trifluoromethyl)phenoxy)-N-(isoquinolin-5-ylmethyl)cyclobutan-1-amine, HCl]: the IC50 turned out to be 436 nM. The value for `Fc1ccc(O[C@H]2C[C@H](NCc3c(F)ccc4cnccc34)C2)cc1OC(F)F` [Example 50, (1r,3r)-3-(3-(difluoromethoxy)-4-fluorophenoxy)-N-((6-fluoroisoquinolin-5-yl)methyl)cyclobutan-1-amine] was 80.6 nM. Regarding `O=C(Cc1c(F)cc(CO)c2cnccc12)N[C@H]1C[C@H](Oc2ccc(F)c(C(F)(F)F)c2)C1` [Example 103, N-((1r,3r)-3-(4-fluoro-3-(trifluoromethyl)phenoxy)cyclobutyl)-2-(6-fluoro-8-(hydroxymethyl)isoquinolin-5-yl)acetamide], the IC50 came to 0.44 nM. Then `Nc1cc2c(CN[C@H]3C[C@H](Oc4ccc(F)c(C(F)(F)F)c4)C3)c(F)cc(CO)c2cn1` [Example 18, (3-amino-6-fluoro-5-((((1r,3r)-3-(4-fluoro-3-(trifluoromethyl)phenoxy)cyclobutyl)amino)methyl)isoquinolin-8-yl)methanol, HCl], with 1.63 nM. `Nc1cc2c(CN[C@H]3C[C@H](Oc4ccc(F)c(C(F)(F)F)c4)C3)c(F)ccc2cn1` [Example 14, 6-fluoro-5-((((1r,3r)-3-(4-fluoro-3-(trifluoromethyl)phenoxy)cyclobutyl)amino)methyl)isoquinolin-3-amine, HCl]: the IC50 amounted to 4.04 nM. As for `Nc1cc2c(CN[C@H]3C[C@H](Oc4ccc(F)c(C(F)(F)F)c4)C3)c(F)cc([C@H](O)CO)c2cn1` (single isomer, unassigned; peak 2) [Example 21 peak 2], the IC50 is 11.3 nM.
